Data: US20230181684A1, “NOVEL ANTIBIOTIC COMPOSITIONS AND METHODS OF MAKING OR USING THE SAME” (priority 2020, published 2023)
In brackets after ≈: the same amount, converted by molar mass. Numbered stars: 1 amine (or outer) side, 2 acyl side, 3 side chain; on linkers, the order of the positions; unused ones are H or OH. Bridge positions count the residues as written; N and C are the ends. Square brackets hold non-standard residues; d marks the D form. Peptide text beside a SMILES is read from it. * marks the point of attachment. Hpg(αMan(1-2)αMan) = N[C@H](C(=O)O)c1ccc(O[C@H]2O[C@H](CO)[C@@H](O)[C@H](O)[C@@H]2O[C@H]2O[C@H](CO)[C@@H](O)[C@H](O)[C@@H]2O)cc1; Octa(2Z,4E)dienoyl(7-Me) = CC(C)C/C=C/C=C\C(=O)*; X1 = NC(=O)[C@@H](O[*:3])[C@H](N[*:1])C(=O)[*:2]; X3 = O=C([C@@H](N[*:1])c1cc(O)cc(O)c1)[*:2]; Hpg(3-Cl) = N[C@H](C(=O)O)c1ccc(O)c(Cl)c1; d(aThr) = C[C@@H](O)[C@@H](N)C(=O)O; dHpg = N[C@@H](C(=O)O)c1ccc(O)cc1; Hpg = N[C@H](C(=O)O)c1ccc(O)cc1; aThr = C[C@H](O)[C@H](N)C(=O)O; dOrn = NCCC[C@@H](N)C(=O)O; X2 = CC(C)CCCCCCC(=O)*

Columns and labels:
[1] = test system: Gram-positive strains; assay: Broth microdilution, Gram-positive strains overall; type: cell-based; conditions: Gram-positive strains B. subtilis ATCC 6051, S. aureus ATCC 25923, E. faecalis ATCC 29212
Protocol: (§1) Assessment of antimicrobial activity of chersinamycin: Chersinamycin was examined for its ability to inhibit bacterial growth by broth microdilution assays against Gram-positive strains B. subtilis ATCC 6051, S. aureus ATCC 25923, and E. faecalis ATCC 29212 and Gram-negative strain E. coli ATCC 25922.
(§2) Minimal inhibitory assays. Antibacterial activity of chersinamycin and positive controls (vancomycin, ampicillin, and ramoplanin A2) were determined by the broth microdilution assay method. Briefly, bacterial strains were grown in cation-adjusted Mueller-Hinton broth. A microtiter plate was prepared by coating wells in 0.2% BSA, and antimicrobial peptides were added with 2-fold dilution steps ranging from 64-0.125 μg mL^−1. Bacteria was added to a final concentration of 10^5 colony forming units and final volume of 100 μL. Plates were incubated at 37° C. for 24 hours, and the MIC was read as the lowest peptide concentration for which no bacterial growth was visualized. Reported values are the average of two replicates.

[2] = test system: E. coli ATCC 25922
Protocol: as §1, §2

[3] = 1% triethylamine in water, room temperature
Description: Macrolactone selective hydrolysis. […] The solution was allowed to sit at room temperature for one hour, and then analyzed by MALDI-TOF. After determining that the reaction had gone to completion by complete consumption of the starting material, the reaction mixture was dried and reconstituted in a water/acetonitrile mixture for further MS/MS analyses.

[4] = test system: S. aureus ATCC 25923; conditions: ATCC 25923, 24 h
Protocol: as §1, §2

[5] = test system: E. faecalis ATCC 29212; conditions: ATCC 29212, 24 h
Protocol: as §1, §2

[6] = test system: B. subtilis ATCC 6051; conditions: ATCC 6051, 24 h
Protocol: as §1, §2

[7] = delivered intravenously; cited from earlier work
[8] = administered by intraperitoneal injection; cited from earlier work
[9] = test system: Gram-positive bacterial infections; conditions: cited from earlier work
[10] = test system: vancomycin-susceptible and vancomycin-resistant C. difficile strains; conditions: cited from earlier work
[11] = cited from earlier work
[12] = Boger alanine scan comparators; cited from earlier work

CC(C)CCCCCCC(=O)N[C@@H](CC(N)=O)C(=O)N[C@@H]1C(=O)N[C@H](c2ccc(O)cc2)C(=O)N[C@H](CCCN)C(=O)N[C@H]([C@@H](C)O)C(=O)N[C@@H](c2ccc(O)cc2)C(=O)N[C@H](c2ccc(O)cc2)C(=O)N[C@@H]([C@H](C)O)C(=O)N[C@@H](Cc2ccccc2)C(=O)N[C@H](CCCN)C(=O)N[C@@H](c2ccc(O[C@H]3O[C@H](CO)[C@@H](O)[C@H](O)[C@@H]3O[C@H]3O[C@H](CO)[C@@H](O)[C@H](O)[C@@H]3O)cc2)C(=O)N[C@H]([C@@H](C)O)C(=O)N[C@@H](c2cc(O)cc(O)c2)C(=O)NCC(=O)N[C@@H](C(C)C)C(=O)N[C@H](C)C(=O)N[C@@H](c2ccc(O)c(Cl)c2)C(=O)O[C@@H]1C(N)=O [Chersinamycin, chersinamycin] (X2-N[X1][dHpg][dOrn][d(aThr)][Hpg][dHpg][aThr]F[dOrn][Hpg(αMan(1-2)αMan)][d(aThr)][X3]GV[dA][Hpg(3-Cl)]; ester 2-C; N-terminus assumed)
ability to inhibit bacterial growth, in words [1]: potent antimicrobial activity | ability to inhibit bacterial growth, in words ([2]; Gram-negative strain E. coli ATCC 25922): ineffective | stability of peptide macrocycle to base [3]: highly base labile

CC(C)C/C=C/C=C\C(=O)N[C@@H](CC(N)=O)C(=O)N[C@@H]1C(=O)N[C@H](c2ccc(O)cc2)C(=O)N[C@H](CCCN)C(=O)N[C@H]([C@@H](C)O)C(=O)N[C@@H](c2ccc(O)cc2)C(=O)N[C@H](c2ccc(O)cc2)C(=O)N[C@@H]([C@H](C)O)C(=O)N[C@@H](Cc2ccccc2)C(=O)N[C@H](CCCN)C(=O)N[C@@H](c2ccc(O[C@H]3O[C@H](CO)[C@@H](O)[C@H](O)[C@@H]3O[C@H]3O[C@H](CO)[C@@H](O)[C@H](O)[C@@H]3O)cc2)C(=O)N[C@H]([C@@H](C)O)C(=O)N[C@@H](c2ccc(O)cc2)C(=O)NCC(=O)N[C@@H](CC(C)C)C(=O)N[C@H](C)C(=O)N[C@@H](c2ccc(O)c(Cl)c2)C(=O)O[C@@H]1C(N)=O [Ramoplanin, ramoplanin A2] ({Octa(2Z,4E)dienoyl(7-Me)}-N[X1][dHpg][dOrn][d(aThr)][Hpg][dHpg][aThr]F[dOrn][Hpg(αMan(1-2)αMan)][d(aThr)][Hpg]GL[dA][Hpg(3-Cl)]; ester 2-C)
MIC [4]: 0.5 µg/mL (≈ 0.196 µM) | MIC ([2]; ATCC 25922, 24 h): >64 µg/mL | MIC [5]: 0.5 µg/mL (≈ 0.196 µM) | MIC [6]: <0.125 µg/mL | hemolysis [7]: mild to moderately hemolytic | stability of macrolactone [8]: susceptible to hydrolysis | MICs in vitro [9]: 0.125 to 2 µg/mL | MICs in vitro against C. difficile [10]: 0.25 to 0.50 µg/mL | oral absorption ([11]; in vivo, po): not orally absorbed | colonic concentrations ([11]; oral delivery): > 300 µg/mL

[Dap2]-ramoplanin A2 aglycon [[Dap2]-ramoplanin aglycon]
MIC [12]: 0.07 µg/mL

ramoplanin A2 aglycon
MIC [12]: 0.11 µg/mL
